For nine molecules, IC50 results are on record in patent publication US20090311217A1, “3-SUBSTITUTED-1H-INDOLE COMPOUNDS, THEIR USE AS MTOR KINASE AND PI3 KINASE INHIBITORS, AND THEIR SYNTHESES” (priority 2008, published 2009).

Format in all cases: biochemical
Assay [1] addresses PI3K-alpha (Homo sapiens, UniProt P42336). Nature of the assay: PI3K-alpha fluorescence polarization assay. The settings on record: read-out: PI3Kα Avg. IC50. On the technique in general: Polarisation of emitted light reports the rotation of a fluorescent probe.
For assay [2], the target named is PI3K-gamma (Homo sapiens, UniProt P48736). Nature of the assay: PI3K-gamma fluorescence polarization assay. The following applies: PI3Kγ Avg. IC50. The gist of the method: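 Enzyme 5 ng; substrate diC8-PI(4,5)P2 2.5 μM; ATP 25 μM; 5 mM HEPES pH 7, 2.5 mM MgCl2; DMSO ≤2%; 1 h, 25° C. Quench 10 mM EDTA. Detect with GRP1 PH domain 100 nM + TMR-IP4 probe 5 nM by polarization.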
Chain of PI3K-gamma (P48736 whole entry, species assumed, the tested form may be a part): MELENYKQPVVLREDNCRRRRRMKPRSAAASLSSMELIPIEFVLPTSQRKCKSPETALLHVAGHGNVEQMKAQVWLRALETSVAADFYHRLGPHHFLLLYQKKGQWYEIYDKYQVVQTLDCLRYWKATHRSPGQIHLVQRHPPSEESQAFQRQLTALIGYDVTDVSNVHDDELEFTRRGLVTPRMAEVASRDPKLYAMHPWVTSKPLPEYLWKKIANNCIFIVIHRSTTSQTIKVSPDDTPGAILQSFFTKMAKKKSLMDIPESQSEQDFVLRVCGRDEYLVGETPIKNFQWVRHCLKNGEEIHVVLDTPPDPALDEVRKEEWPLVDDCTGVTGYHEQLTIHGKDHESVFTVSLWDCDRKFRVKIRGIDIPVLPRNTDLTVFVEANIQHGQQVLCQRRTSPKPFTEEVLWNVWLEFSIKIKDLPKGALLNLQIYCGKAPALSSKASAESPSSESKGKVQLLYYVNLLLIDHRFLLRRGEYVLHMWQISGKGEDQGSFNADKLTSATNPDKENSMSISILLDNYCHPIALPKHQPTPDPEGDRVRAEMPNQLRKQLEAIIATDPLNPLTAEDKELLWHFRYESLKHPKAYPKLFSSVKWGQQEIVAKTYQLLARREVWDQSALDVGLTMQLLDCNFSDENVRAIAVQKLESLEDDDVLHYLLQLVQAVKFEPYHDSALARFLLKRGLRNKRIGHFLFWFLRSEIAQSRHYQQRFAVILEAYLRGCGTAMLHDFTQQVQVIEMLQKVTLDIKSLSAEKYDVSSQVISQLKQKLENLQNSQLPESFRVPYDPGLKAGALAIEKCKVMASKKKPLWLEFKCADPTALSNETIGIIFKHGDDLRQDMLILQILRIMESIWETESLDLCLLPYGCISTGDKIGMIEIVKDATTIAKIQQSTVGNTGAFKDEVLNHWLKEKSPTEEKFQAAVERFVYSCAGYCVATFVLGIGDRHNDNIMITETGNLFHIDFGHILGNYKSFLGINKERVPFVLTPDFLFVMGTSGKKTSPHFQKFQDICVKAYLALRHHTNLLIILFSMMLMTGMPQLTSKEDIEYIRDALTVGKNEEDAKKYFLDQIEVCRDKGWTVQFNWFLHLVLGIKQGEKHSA

For assay [3], the target named is T1, human TOR (Homo sapiens, UniProt P42345).
T1 construct: FLAG
As to the kind of experiment: mTOR enzyme assay (DELFIA, His6-S6K substrate). The settings on record: read-out: mTOR Kinase Avg. IC50.

Some results are limits rather than exact numbers.

Chain of PI3K-alpha (P42336 whole entry, species assumed, the tested form may be a part): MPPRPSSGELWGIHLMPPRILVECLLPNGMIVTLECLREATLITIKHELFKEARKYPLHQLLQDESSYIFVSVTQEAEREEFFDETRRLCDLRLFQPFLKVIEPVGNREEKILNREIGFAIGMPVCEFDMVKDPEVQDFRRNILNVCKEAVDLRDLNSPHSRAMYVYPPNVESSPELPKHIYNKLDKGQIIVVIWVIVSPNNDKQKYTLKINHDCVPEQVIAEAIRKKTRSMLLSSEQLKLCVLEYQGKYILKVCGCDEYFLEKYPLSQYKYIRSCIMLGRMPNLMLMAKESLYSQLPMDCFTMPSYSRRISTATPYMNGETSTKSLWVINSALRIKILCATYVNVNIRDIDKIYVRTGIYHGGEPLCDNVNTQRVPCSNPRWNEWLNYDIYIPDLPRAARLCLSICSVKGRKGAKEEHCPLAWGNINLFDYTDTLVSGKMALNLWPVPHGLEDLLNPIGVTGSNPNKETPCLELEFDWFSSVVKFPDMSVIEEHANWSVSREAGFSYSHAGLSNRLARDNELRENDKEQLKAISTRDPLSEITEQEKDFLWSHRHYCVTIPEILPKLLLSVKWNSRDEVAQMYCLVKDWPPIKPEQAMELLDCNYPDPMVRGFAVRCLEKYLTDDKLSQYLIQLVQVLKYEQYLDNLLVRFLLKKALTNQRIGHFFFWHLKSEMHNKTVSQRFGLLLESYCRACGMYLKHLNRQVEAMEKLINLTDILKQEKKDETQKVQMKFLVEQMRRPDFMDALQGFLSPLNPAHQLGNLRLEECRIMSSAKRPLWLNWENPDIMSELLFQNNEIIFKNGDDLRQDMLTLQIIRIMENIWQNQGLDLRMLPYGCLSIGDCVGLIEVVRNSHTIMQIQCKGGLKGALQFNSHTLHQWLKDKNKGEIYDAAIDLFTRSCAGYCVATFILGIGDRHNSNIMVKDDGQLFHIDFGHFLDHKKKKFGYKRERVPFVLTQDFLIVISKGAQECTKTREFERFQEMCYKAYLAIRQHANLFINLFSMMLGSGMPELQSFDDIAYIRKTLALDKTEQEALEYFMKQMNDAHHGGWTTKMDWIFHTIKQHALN
Chain of PI3K-alpha (P27986 whole entry partner, species assumed, the tested form may be a part): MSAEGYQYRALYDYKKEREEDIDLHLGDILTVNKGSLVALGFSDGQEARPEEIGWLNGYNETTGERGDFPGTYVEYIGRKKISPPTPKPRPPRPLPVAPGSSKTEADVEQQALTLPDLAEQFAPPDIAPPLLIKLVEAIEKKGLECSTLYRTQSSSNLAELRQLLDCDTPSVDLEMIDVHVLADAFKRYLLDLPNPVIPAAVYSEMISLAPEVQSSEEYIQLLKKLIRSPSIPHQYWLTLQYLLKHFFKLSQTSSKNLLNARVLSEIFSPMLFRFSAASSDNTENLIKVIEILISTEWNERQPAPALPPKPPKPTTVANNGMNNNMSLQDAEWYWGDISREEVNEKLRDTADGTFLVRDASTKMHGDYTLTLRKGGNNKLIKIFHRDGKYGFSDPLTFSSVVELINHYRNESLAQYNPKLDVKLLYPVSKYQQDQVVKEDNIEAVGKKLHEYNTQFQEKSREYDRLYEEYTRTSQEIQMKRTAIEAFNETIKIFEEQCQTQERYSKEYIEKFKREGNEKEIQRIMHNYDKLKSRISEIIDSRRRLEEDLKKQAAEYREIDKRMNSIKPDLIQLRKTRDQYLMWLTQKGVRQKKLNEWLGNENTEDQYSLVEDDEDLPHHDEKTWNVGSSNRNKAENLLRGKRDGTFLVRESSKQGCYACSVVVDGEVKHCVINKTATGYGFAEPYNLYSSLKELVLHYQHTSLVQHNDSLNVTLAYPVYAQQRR

In the case of `CNC(=O)Nc1ccc2c(c1)C(=O)/C(=C/c1c(-c3c(C)nn(C)c3C)n(CCN(C)C)c3ccc(OC)cc13)O2` [Compound 673, 1-[(2Z)-2-({1-[2-(dimethylamino)ethyl]-5-methoxy-2-(1,3,5-trimethyl-1H-pyrazol-4-yl)-1H-indol-3-yl}methylidene)-3-oxo-2,3-dihydro-1-benzofuran-5-yl]-3-methylurea], the results for the IC50 in assay [1], in assay [2] and in assay [3] were 12.5 nM, 61.5 nM and 60 nM, respectively.

In the case of `CNC(=O)Nc1ccc2c(c1)C(=O)/C(=C/c1c(-c3c(C)nn(C)c3C)n(CCNCCO)c3ccc(OC)cc13)O2` [Compound 648, 1-[(2Z)-2-{[1-{2-[(2-hydroxyethyl)amino]ethyl}-5-methoxy-2-(1,3,5-trimethyl-1H-pyrazol-4-yl)-1H-indol-3-yl]methylene}-3-oxo-2,3-dihydro-1-benzofuran-5-yl]-3-methylurea], the IC50 (usually the concentration that gives 50% inhibition) was 2.95 nM in assay [1], 37 nM in assay [2] and 9 nM in assay [3].

Consider `CNCCNC(=O)Nc1ccc2c(c1)C(=O)/C(=C/c1c(-c3c(C)nn(C)c3C)[nH]c3c(F)cc(OC)cc13)O2` [Compound 728, 1-[(2Z)-2-{[7-fluoro-5-methoxy-2-(1,3,5-trimethyl-1H-pyrazol-4-yl)-1H-indol-3-yl]methylidene}-3-oxo-2,3-dihydro-1-benzofuran-5-yl]-3-[2-(methylamino)ethyl]urea], for which the IC50 in assay [1] is 0.95 nM; in assay [2], 3.55 nM; in assay [3], 7 nM.

Turning to `COc1ccc2c(c1)c(/C=C1\Oc3c(ccc(O)c3Cl)C1=O)c(C)n2CCN1CCN(C)CC1` [Example 451, (2Z)-7-Chloro-6-hydroxy-2-({5-methoxy-2-methyl-1-[2-(4-methylpiperazin-1-yl)ethyl]-1H-indol-3-yl}methylene)-1-benzofuran-3(2H)-one], the 50% inhibitory concentration (IC50) is 375 nM in assay [1], 7740 nM in assay [2] and above 20000 nM in assay [3].

Turning to `CNC(=O)Nc1ccc2c(c1)C(=O)/C(=C/c1c(-c3cnn(CC(C)C)c3)[nH]c3ccc(OC)cc13)O2` [Compound 706, 1-[(2Z)-2-({5-methoxy-2-[1-(2-methylpropyl)-1H-pyrazol-4-yl]-1H-indol-3-yl}methylidene)-3-oxo-2,3-dihydro-1-benzofuran-5-yl]-3-methylurea], the IC50 worked out at 1.3 nM in assay [1], 10 nM in assay [2] and 10 nM in assay [3].

In the case of `Cn1cc(/C=C2\Oc3cc(O)cc(O)c3C2=O)c2c(-c3ccc(NC(=O)NC4CC4)cc3)cccc21` [Example 401, 1-cyclopropyl-3-(4-{3-[(Z)-(4,6-dihydroxy-3-oxo-1-benzofuran-2(3H)-ylidene)methyl]-1-methyl-1H-indol-4-yl}phenyl)urea], the results for the half-maximal inhibitory concentration (IC50) in assay [1], in assay [2] and in assay [3] were 267 nM, 2680 nM and 61.5 nM, respectively.

For the molecule `Cn1c(-c2ccccn2)c(C=C2Oc3cc(O)cc(O)c3C2=O)c2ccccc21` [Example 223, 4,6-dihydroxy-2-[(1-methyl-2-pyridin-2-yl-1H-indol-3-yl)methylene]-1-benzofuran-3(2H)-one], the values for the IC50 in assay [1], in assay [2] and in assay [3] were 3660 nM, above 10000 nM and 60 nM, respectively.

For the molecule `CNC(=O)Nc1ccc2c(c1)C(=O)/C(=C/c1c(-c3c(C)nn(C)c3C)n(CCCC#N)c3ccc(OC)cc13)O2` [Compound 634, 1-[(2Z)-2-{[1-(3-cyanopropyl)-5-methoxy-2-(1,3,5-trimethyl-1H-pyrazol-4-yl)-1H-indol-3-yl]methylene}-3-oxo-2,3-dihydro-1-benzofuran-5-yl]-3-methylurea], the IC50 was determined as 2.1 nM in assay [1], 16.5 nM in assay [2] and 19 nM in assay [3].

Regarding `Cn1cc(/C=C2\Oc3cc(O)cc(O)c3C2=O)c2c(-c3ccc(C(N)=O)cc3)cccc21` [Example 377, 4-{3-[(Z)-(4,6-Dihydroxy-3-oxo-1-benzofuran-2(3H)-ylidene)methyl]-1-methyl-1H-indol-4-yl}benzamide], the half-inhibitory concentration (IC50) was 496 nM in assay [1], 4070 nM in assay [2] and 7 nM in assay [3].
